Columns and labels:
[1] = target: T1, Type-1 angiotensin II receptor (Bos taurus, UniProt P25104); experiment: Displacement of [125 I]-AII (0.2 nM) from bovine adrenal cortical membrane angiotensin II (AII) receptor at 10e-7 M
T1 sequence (P25104 whole entry): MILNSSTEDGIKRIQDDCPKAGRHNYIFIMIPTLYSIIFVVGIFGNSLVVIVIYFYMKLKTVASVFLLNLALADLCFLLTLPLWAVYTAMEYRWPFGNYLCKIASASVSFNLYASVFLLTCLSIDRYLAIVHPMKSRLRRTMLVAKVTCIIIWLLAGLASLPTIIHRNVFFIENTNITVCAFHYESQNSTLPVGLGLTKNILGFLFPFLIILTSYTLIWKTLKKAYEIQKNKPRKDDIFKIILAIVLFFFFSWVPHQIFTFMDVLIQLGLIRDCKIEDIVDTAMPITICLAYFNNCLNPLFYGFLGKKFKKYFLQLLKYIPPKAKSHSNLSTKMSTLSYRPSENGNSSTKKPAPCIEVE

[2] = system: Rattus norvegicus; experiment: Inhibitory activity against the pressor response induced by angiotensin II (AII) in conscious rats, at 1 mg/kg p.o. at 7 hr; type: functional; settings: route oral
[3] = system: Rattus norvegicus; experiment: Inhibitory activity against the pressor response induced by Angiotensin II (AII) in conscious rats, at 1 mg/kg p.o. at 3h; type: functional; settings: route oral
[4] = system: Rattus norvegicus; experiment: Dose-dependent reduction of blood pressure in spontaneously hypertensive rats administered orally (antihypertensive effect); type: functional; settings: po
[5] = system: Rattus norvegicus; experiment: Inhibitory activity against the pressor response induced by Angiotensin II (AII) in conscious rats, at 1 mg/kg p.o. at 7 hr; type: functional; settings: route oral
[6] = system: Rattus norvegicus; experiment: Inhibitory activity against the pressor response induced by angiotensin II (AII) in conscious rats, at 1 mg/kg p.o. at 3h; type: functional; settings: route oral
[7] = organism: Rattus norvegicus; experiment: pD2 value of compound was determined; type: functional
[8] = Partition coefficient (logP); type: physicochemical; settings: octanol/water
[9] = Percent oral bioavailability examined in rats; type: ADME, organism-based; settings: rat, in vivo
[10] = system: Rattus norvegicus; experiment: Tested for dose-dependent inhibition of Angiotensin II (AII)-induced pressor response at more than 0.01 mg/kg, p.o.; type: functional; settings: route oral, read-out: ID50 (the source's name)

IC50 [1]	SMILES	inhibition in vivo at 1 mg/kg [3]	inhibition in vivo at 1 mg/kg [5]	other results
310 nM	CCc1nc2cccc(C(=O)O)c2n1Cc1ccc(-c2ccccc2-c2noc(O)n2)cc1	88%	–	inhibition in vivo at 1 mg/kg [2]: 67%
–	CCOc1nc2cccc(C(=O)OC(C)OC(=O)OC3CCCCC3)c2n1Cc1ccc(-c2ccccc2-c2nn[nH]n2)cc1 (stereo not given) [CANDESARTAN CILEXETIL]	–	–	ED25 [4]: 0.68 mg/kg
42 nM	CCNc1nc2cccc(C(=O)O)c2n1Cc1ccc(-c2ccccc2-c2noc(O)n2)cc1	25%	6%	–
–	CCCCc1nc(Cl)c(CO)n1Cc1ccc(-c2ccccc2-c2nnn[nH]2)cc1 [LOSARTAN]	–	–	inhibition in vivo at 1 mg/kg [6]: 21%; inhibition in vivo at 1 mg/kg [2]: 34%
850 nM	CCCSc1nc2cccc(C(=O)O)c2n1Cc1ccc(-c2ccccc2-c2noc(O)n2)cc1	80%	100%	–
790 nM	CCCOc1nc2cccc(C(=O)O)c2n1Cc1ccc(-c2ccccc2-c2noc(O)n2)cc1	100%	100%	–
420 nM	CCCc1nc2cccc(C(=O)O)c2n1Cc1ccc(-c2ccccc2-c2noc(O)n2)cc1	100%	88%	–
360 nM	COc1nc2cccc(C(=O)O)c2n1Cc1ccc(-c2ccccc2-c2noc(O)n2)cc1	90%	88%	–
390 nM	CSc1nc2cccc(C(=O)O)c2n1Cc1ccc(-c2ccccc2-c2noc(O)n2)cc1	100%	100%	–
–	CCOc1nc2cccc(C(=O)O)c2n1Cc1ccc(-c2ccccc2-c2nnn[nH]2)cc1 [CANDESARTAN]	–	–	inhibition in vivo at 1 mg/kg [6]: 100%; inhibition in vivo at 1 mg/kg [2]: 92%; pD2 [7]: 9.97; logP [8]: 0.32
620 nM	CCCCc1nc2cccc(C(=O)O)c2n1Cc1ccc(-c2ccccc2-c2noc(O)n2)cc1	68%	64%	–
420 nM	CCOc1nc2cccc(C(=O)O)c2n1Cc1ccc(-c2ccccc2-c2noc(=O)[nH]2)cc1 [AZILSARTAN]	100%	100%	bioavailability [9]: 20%; ED25 [4]: 0.4 mg/kg; ED50 [10]: 0.06 mg/kg; pD2 [7]: 9.93; logP [8]: 0.9
260 nM	CNc1nc2cccc(C(=O)O)c2n1Cc1ccc(-c2ccccc2-c2noc(O)n2)cc1	14%	13%	–
480 nM	CCSc1nc2cccc(C(=O)O)c2n1Cc1ccc(-c2ccccc2-c2noc(O)n2)cc1	83%	100%	–
